Measurements from patent US20250346582A1, “SPLEEN TYROSINE KINASE INHIBITORS AND METHODS OF USE THEREOF” (THE BOARD OF TRUSTEES OF THE UNIVERSITY OF ILLINOIS, priority 2022, published 2025).

How the values were obtained:
Syk-cSH2 = molecular target: T1, Syk-cSH2 (Homo sapiens, UniProt P43405); assay: Fluorescence quenching vesicle binding assay, Syk-cSH2; settings: for IC50: read-out: IC50
T1 construct: polyhistidine (N); made in house; host or cells: Escherichia coli BL21 (DE3) pLysS
Procedure: The membrane-binding assay is based on fluorescence quenching of EGFP fused to a SH2 domain by a dark quencher containing lipid, dabsyl-PE, incorporated in lipid vesicles. The plate reader assay was performed using the Synergy™ Neo spectrofluorometer at 25° C. Nontreated black polystyrene 96-well plates (Corning) were used. Protein (10-50 nM) with the increasing concentration of vesicles with a given lipid composition in 20 mM Tris buffer, pH 7.4, containing 0.16 M NaCl was added to each row of wells and the EGFP fluorescence emission at 516 nm was measured with excitation set at 485 nm. Z′ factor for the assay system was determined as described^74. Imax and IC50 values of inhibitors were determined using the equation, I=Imax/(1+IC50/[I]) where I and [I] indicate % inhibition and inhibitor concentration, respectively. The average and standard deviation values were obtained from triplicate determinations.
We also optimized a recently developed fluorescence quenching-based lipid-binding assay^47 for high-throughput screening of these molecules for their inhibitory activity against the PIP3-SH2 interaction. Specifically, we expressed SH2 domains as EGFP-tagged proteins and directly quantified their membrane binding by monitoring the quenching of EGFP fluorescence emission intensity by a dark quencher-containing lipid, N-dimethylaminoazo-benzenesulfonyl-phosphatidylethanolamine (dabsyl-PE), incorporated in the vesicles. We then screened for compounds that inhibited binding of Syk-cSH2, BLNK-SH2, and PLCγ2-cSH2, respectively, to 1-palmitoyl-2-oleoyl-PC (POPC)/1-palmitoyl-2-oleoyl-PS (POPS)/PIP3/dabsyl-PE (67:20:3:10) vesicles while eliminating those that inhibit their non-specific binding to anionic POPC/POPS/dabsyl-PE (70:20:10) vesicles. The quality of the screening system was evaluated using 1% dimethylsulfoxide (DMSO) and 20 μM D-myo-inositol-1,3,4,5-tetraphosphate (IP4) as negative and positive controls, respectively. The clear separation of positive and negative control data and the average Z′-factor of 0.7 supported the robustness of our system for high-throughput screen of PIP3-SH2 interaction inhibitors.

pZAP70 = molecular target: T2, pZAP70 (Homo sapiens, UniProt P43403); assay: Western blot inhibition of ZAP70 phosphorylation in Jurkat T cells; assay type: cell-based; settings: for Emax: Immunoblotting, pZAP70, Western blot assay in Jurkat T cells, read-out: Imax (%); for inhibition of ZAP-70 phosphorylation: Jurkat T cells stimulated by OKT3, 5 μM overnight
T2 construct: host or cells: Jurkat T cells, OKT3-stimulated
T2 sequence (P43403 1-619): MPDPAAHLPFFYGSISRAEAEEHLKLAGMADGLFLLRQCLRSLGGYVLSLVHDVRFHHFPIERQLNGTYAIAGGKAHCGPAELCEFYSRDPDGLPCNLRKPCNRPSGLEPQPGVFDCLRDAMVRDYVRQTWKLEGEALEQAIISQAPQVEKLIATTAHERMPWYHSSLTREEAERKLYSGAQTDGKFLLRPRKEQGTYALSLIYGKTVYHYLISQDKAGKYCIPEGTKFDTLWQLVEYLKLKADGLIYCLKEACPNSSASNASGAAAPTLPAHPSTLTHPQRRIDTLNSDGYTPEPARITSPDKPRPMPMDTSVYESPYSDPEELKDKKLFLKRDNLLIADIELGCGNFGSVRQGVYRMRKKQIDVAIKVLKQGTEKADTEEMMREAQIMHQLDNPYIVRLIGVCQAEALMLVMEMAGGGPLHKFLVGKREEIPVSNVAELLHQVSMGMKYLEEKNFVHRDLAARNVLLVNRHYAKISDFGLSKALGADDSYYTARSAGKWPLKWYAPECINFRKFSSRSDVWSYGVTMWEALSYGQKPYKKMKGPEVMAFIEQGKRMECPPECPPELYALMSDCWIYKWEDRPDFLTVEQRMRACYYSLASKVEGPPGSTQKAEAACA
Procedure: (a) Cellular efficacy of WC35, WC36, and WC38 was determined by dose-dependent inhibition of Syk phosphorylation in Raji B cells. (b) Imax and IC50 values were determined by non-linear least-squares analysis of data using the equation: […] Each data represents average ±s.d. from triplicate measurements. […] Jurkat T cells were stimulated by OKT3. Cells were seeded at a density of 3.0×10^5 cells/well prior to incubation with inhibitors. […] IgG2 for AML cells, IgM for Raji B cells, and OKT3 (Biolegend) for Jurkat cells. […] Samples were analyzed by SDS-PAGE. Proteins were separated and transferred to Immobilon-P polyvinylidene difluoride membrane (Millipore Sigma). […] The chemiluminescence intensity of protein bands in the gel was analyzed and documented by the Azure […] Imaging System.

[1] = system: phosphorylation of Syk, STAT3/5 and ERK1/2; assay: Western blot of IgG2-stimulated phosphorylation in MV4-11 AML cells; assay type: cell-based; settings: MV4-11 cells, 5 μM overnight
Procedure: FIGS. 2A-2D show the inhibition of the signaling activity and proliferation of MV4-11 AML cells by Syk-cSH2 inhibitors. […] GAPDH was used as a gel loading control. […] Imax and IC50 values were determined by non-linear least-squares analysis of data using the equation: I=Imax/(1+IC50/[inhibitor]) where I indicates % inhibition at a given inhibitor concentration ([inhibitor]). (c) Inhibition of IgG2-stimulated phosphorylation of Syk, STAT3/STAT5 and ERK1/2 in entospletinib-resistant MV-4-11 cells by 5 μM of WC35, WC36, and WC38.
Cells were seeded at a density of 3.0×10^5 cells/well prior to incubation with inhibitors. Cells were incubated with 1-5 μM of Syk inhibitors overnight and stimulated with different antibodies: IgG2 for AML cells, IgM for Raji B cells, and OKT3 (Biolegend) for Jurkat cells. The cells were lysed in NP40 lysis buffer (50 mM Tris, pH 7.5, 150 mM NaCl, 1 mM EDTA, 1% NP40, 10% glycerol, 10 mM NaF, 10 mM Na3VO4, and the protease inhibitor cocktail) at 4° C. and the cell debris was removed by centrifugation. Samples were analyzed by SDS-PAGE. Proteins were separated and transferred to Immobilon-P polyvinylidene difluoride membrane (Millipore Sigma). The membrane was blocked with 5% bovine serum albumin for 1 h and incubated overnight at 4° C. with various antibodies (1:1000 dilution for all antibodies). After the unbound antibodies were removed by washing with 0.1% Tris buffer saline with 0.1% Tween20, the membranes were incubated with the horseradish peroxidase secondary antibody (1:5000 dilution) for 1 h at room temperature. The membranes were washed three more times with 0.1% Tris buffer saline with 0.1% Tween20 to remove the unbound horseradish peroxidase secondary antibody before imaging. The chemiluminescence intensity of protein bands in the gel was analyzed and documented by the Azure 500Q Imaging System.

[2] = Table 3, efficacy determined by the vesicle binding assay
[3] = Table 4, POPC/POPS/PIP3/dabsyl-PE (67:20:3:10) vesicles (40 μM)

| SMILES | Imax (%) (Syk-cSH2; [2]) | IC50 (Syk-cSH2; [2]) | Imax (%) (Syk-cSH2; [3]) | Emax (pZAP70) | inhibition of ZAP-70 phosphorylation (pZAP70) | inhibition of phosphorylation of Syk, STAT3/5 and ERK1/2 [1] |
| --- | --- | --- | --- | --- | --- | --- |
| [N-]=[N+]=C(C(=O)OC1CCCCC1)C(Nc1ncccn1)c1ccco1 (racemic) [WC35, Cyclohexyl 2-diazo-3-(furan-2-yl)-3-(pyrimidin-2-ylamino)propanoate] | Imax (%) = 50 | 150 nM | 50 ± 5% | < 10% | did not inhibit phosphorylation and activation of ZAP-70 | less active than entospletinib for both Syk and ERK1/2 inhibition |
| [N-]=[N+]=C(C(=O)OC1CCCCC1)C(Nc1ncccn1)c1c[nH]c2ccccc12 (racemic) [WC36, Cyclohexyl 2-diazo-3-(1H-indol-3-yl)-3-(pyrimidin-2-ylamino)propanoate] | Imax (%) = 60 | 40 nM | 60 ± 5% | < 10% | did not inhibit phosphorylation and activation of ZAP-70 | suppressed phosphorylation of Syk and STAT3/5 as potently as entospletinib but were modestly less active than entospletinib for ERK1/2 inhibition |
| [N-]=[N+]=C(C(=O)OC1CCCCC1)C(Nc1ncccn1)c1ccc[nH]1 (racemic) [WC38, Cyclohexyl 2-diazo-3-(pyrimidin-2-ylamino)-3-(1H-pyrrol-2-yl)propanoate] | Imax (%) = 70 | 120 nM | 70 ± 5% | < 10% | did not inhibit phosphorylation and activation of ZAP-70 | suppressed phosphorylation of Syk and STAT3/5 as potently as entospletinib but were modestly less active than entospletinib for ERK1/2 inhibition |
